# Experimental data from PMC4594035, “Xenopus borealis as an alternative source of oocytes for biophysical and pharmacological studies of neuronal ion channels” (Scientific Reports, 2015).
# Where two headings read alike, the source gives them in different places. Bridge positions count the residues as written; N and C are the ends. Ends that are not written are not given here.
# Tests used:
# [1] = target: α5β3γ2L GABAAR (Homo sapiens, UniProt P28472+P31644); assay: GABA activation of α5β3γ2L GABAAR, two-electrode voltage-clamp in Xenopus oocytes; format: cell-based; conditions: n = 9–10; for Slope (Hill coefficient): mean
# Method: (§1) X. laevis (Xenopus Express) and X. borealis (Nasco) oocytes were surgically removed from anaesthetised (Tricaine methanesulfonate, MS-222) female frogs and treated with collagenase (1 mg/ml; Sigma type I) for defolliculation. cRNAs were synthesised using an mMessage mMachine cRNA transcription kit (Ambion Inc., Austin, TX, USA) and injected into stage V–VI oocytes at 4–200 ng per cell. Oocytes were stored at 17 °C in ND96 solution (96 mM NaCl, 1.8 mM CaCl2, 2 mM KCl, 2 mM MgCl2, 5 mM HEPES, pH 7.4) supplemented with 2.5 mM pyruvic acid, 50 μg/mL gentamicin, and either 2.5% horse serum or 0.5 mM theophylline. Membrane currents were recorded 2–10 days after injection under voltage-clamp (Axoclamp 900A or Geneclamp 500B, Molecular Devices, CA, USA) using two standard glass microelectrodes of 0.5–2 MΩ resistance when filled with 3 M KCl solution. Data acquisition and analysis were performed using pCLAMP software (Version 9.2 or 10, Molecular Devices, Sunnyvale, CA, USA). All experiments were performed at room temperature (18–21 °C) in ND96 solution. Experiments containing peptides were performed in ND96 solution containing 0.1% fatty acid free-bovine serum albumin (Sigma). Recordings were performed as previously described for ASICs[30][31], GABAAR[32][33], GlyR[34], KV[6][8][35], and NaV[36] channels.
# (§2) All data were analysed using Prism 6.0 (GraphPad Software, San Diego, CA, USA). The Hill equation was fitted to normalised concentration-response curves to obtain the half-maximal response (EC50, IC50, or pH50) and Hill coefficient (nH). Voltage-dependent activation curves were fit with the Boltzmann equation to obtain the V0.5 (the voltage corresponding to half-maximal effect). Data are shown as mean and 95% confidence intervals, and n represents the number of oocytes for a given experiment (taken from at least three different frogs). […] For both t-tests, it was assumed data was sampled from Gaussian populations, and P values were calculated from two-tailed tests. […]
# [2] = target: α1β2γ2L GABAAR (Homo sapiens, UniProt P14867+P47870); assay: GABA activation of α1β2γ2L GABAAR, two-electrode voltage-clamp in Xenopus oocytes; format: cell-based; conditions: n = 9–10; for Slope (Hill coefficient): mean
# Method: as §1, §2
# [3] = target: α5β2γ2L GABAAR (Homo sapiens, UniProt P31644+P47870); assay: GABA activation of α5β2γ2L GABAAR, two-electrode voltage-clamp in Xenopus oocytes; format: cell-based; conditions: n = 9–10; for Slope (Hill coefficient): mean
# Method: as §1, §2
# [4] = tested on: α1R271C GlyR; conditions: MTSR labelled, mean ± s.e.m.; for Slope, ΔF / Slope, ΔI / EC50: n = 4–6; for EC50: −40 mV
# Source text: (§3) This technique permits the real time monitoring of conformational changes in ion channel domains distant from the gate. It involves introducing a cysteine into the ion channel domain of interest and covalently labelling it with a sulfhydryl-reactive rhodamine derivative such as MTSR. As the quantum efficiency of the rhodamine depends on the hydrophobicity of its environment, protein conformational changes occurring in the immediate vicinity of the attached fluorophore are likely to change the hydrophobicity of its environment and thus produce a fluorescence change. […] Conformational changes at the channel gate are monitored simultaneously using two-electrode voltage-clamp. For these recordings, DNA encoding the α1 GlyR subunit was subcloned into pGEMHE, a plasmid vector optimised for oocyte expression. […] Both sites have previously been characterised extensively using voltage-clamp fluorometry. A C41A mutation was incorporated into the α1 GlyR to eliminate the sole non-crosslinked extracellular sulfhydryl group. Site directed mutagenesis was performed using the QuikChange mutagenesis kit (Stratagene).
# (§4) On the day of recording, oocytes were transferred into ND96 and stored on ice. For a subset of experiments, a modified version of the previously described approach[39] for vitelline membrane disruption and removal was performed by incubating oocytes in ND96 containing 0.5 mg/ml protease (protease type VIII from Bacillus licheniformis, Sigma-Aldrich) for 1–1.5 min before labelling. Following this, a sequential wash step was performed by transferring oocytes into fresh ND96 solution five consecutive times. To label with either MTSR or MTS-TAMRA (Toronto Research Chemicals), oocytes were transferred into labelling solution containing 10 μM of either compound in ND96 for 25 s. The oocytes were then washed and stored in ND96 for up to 6 h before recording. All labelling steps were performed on ice.
# (§5) We recently described the experimental set up in detail. Briefly, we employed an inverted microscope (Eclipse TE300, Nikon Instruments) equipped with a high-Q tetramethylrhodamine isothiocyanate filter set (Chroma Technology), a Plan Fluor X40 objective (Nikon Instruments) and an H7360-03 photomultiplier detection system (Hamamatsu Photonics) attached to the side port of the microscope. An excitation filter wheel including a shutter and emission filter wheel were controlled through a Lambda 10-2 unit (Sutter Instruments). A Lambda LS 175 W xenon arc lamp served as a light source and was coupled to the microscope via a liquid light guide (Sutter Instruments). The design of the custom-made recording chamber has been described. An automated perfusion system operated by a ValveBank-8 valve controller (AutoMate Scientific) was used for perfusion of the recording chamber. Electrodes were moved by automated ROE-200 micromanipulators coupled to an MPC-200 controller (Sutter Instruments). Cells were voltage-clamped at −40 mV and currents recorded using a Gene Clamp 500B amplifier (Molecular Devices). Current and fluorescence traces were acquired at 200 Hz via a Digidata 1322A interface and pCLAMP 9.2 software.
# (§6) All data were analysed using Prism 6.0 (GraphPad Software, San Diego, CA, USA). The Hill equation was fitted to normalised concentration-response curves to obtain the half-maximal response (EC50, IC50, or pH50) and Hill coefficient (nH). Voltage-dependent activation curves were fit with the Boltzmann equation to obtain the V0.5 (the voltage corresponding to half-maximal effect). Data are shown as mean and 95% confidence intervals, and n represents the number of oocytes for a given experiment (taken from at least three different frogs). Most equivalence testing comparing X. laevis and X. borealis oocytes was performed using an unpaired Student’s t-test with 95% confidence intervals.
# [5] = tested on: α1N203C GlyR; conditions: for ΔFmax (maximal fluorescence change) / ΔImax (maximal current change) / Slope, ΔF / Slope, ΔI / EC50: MTS-TAMRA labelled, mean ± s.e.m.; for Slope, ΔF / Slope, ΔI / EC50: n = 4–6; for EC50: −40 mV
# Source text: as §3, §4, §5, §6
# [6] = target: T1, rat ASIC3 (Rattus norvegicus, UniProt O35240); assay: Inhibition of rat ASIC3 by APETx2, two-electrode voltage-clamp in Xenopus oocytes; format: cell-based; conditions: ND96 with 0.1% fatty acid free-bovine serum albumin, 18–21 °C, mean, n = 9, Supplementary Table S3, read-out: IC50 (half-maximal response)
# T1 construct: expressed in transfected cells; host or cells: Xenopus laevis and Xenopus borealis oocytes (cRNA injection)
# T1 sequence (O35240 1-533): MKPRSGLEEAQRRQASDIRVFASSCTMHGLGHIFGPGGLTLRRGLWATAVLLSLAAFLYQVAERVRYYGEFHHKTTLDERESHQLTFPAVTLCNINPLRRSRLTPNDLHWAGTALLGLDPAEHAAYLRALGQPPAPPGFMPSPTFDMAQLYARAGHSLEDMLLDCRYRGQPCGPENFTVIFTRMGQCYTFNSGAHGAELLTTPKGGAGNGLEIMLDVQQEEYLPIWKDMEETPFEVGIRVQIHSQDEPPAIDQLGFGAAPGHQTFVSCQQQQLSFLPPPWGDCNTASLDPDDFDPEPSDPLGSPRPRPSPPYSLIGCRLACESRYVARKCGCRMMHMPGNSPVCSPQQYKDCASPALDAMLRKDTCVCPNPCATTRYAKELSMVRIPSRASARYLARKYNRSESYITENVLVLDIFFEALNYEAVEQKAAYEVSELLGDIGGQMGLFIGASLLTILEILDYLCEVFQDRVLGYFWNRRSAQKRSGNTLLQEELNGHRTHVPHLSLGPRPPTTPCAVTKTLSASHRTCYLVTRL
# Method: as §1, with “Recordings were performed as previously described for ASICs[30][31], GABAAR[32][33], GlyR[34], KV[6][8][35], and NaV[36] channels.” left out
# (§7) All data were analysed using Prism 6.0 (GraphPad Software, San Diego, CA, USA). […] For both t-tests, it was assumed data was sampled from Gaussian populations, and P values were calculated from two-tailed tests. […]
# [7] = tested on: NaV1.2; assay: Inhibition of NaV1.2 by ProTx-I, two-electrode voltage-clamp in Xenopus oocytes; format: cell-based; conditions: 300 nM ProTx-I; depolarisation to –15 mV from holding potential −80 mV; n = 8–9; Fig. 3f; P > 0.05
# Method: as §1, with “Recordings were performed as previously described for ASICs[30][31], GABAAR[32][33], GlyR[34], KV[6][8][35], and NaV[36] channels.” left out
# as §7
# [8] = tested on: NaV channel; conditions: cited from earlier work
# Method: Two-electrode voltage-clamp electrophysiology recordings were performed to compare the properties of a panel of KV and voltage-gated sodium (NaV) channels heterologously expressed in X. laevis and X. borealis oocytes. […] Conductance-voltage relationship curves obtained for NaV1.2 (Fig. 3c), NaV1.5 (Fig. 3d), and NaV1.7 (Fig. 3e) overlap ...
# [9] = tested on: NaV1.7; assay: Inhibition of NaV1.7 by ProTx-I, two-electrode voltage-clamp in Xenopus oocytes; format: cell-based; conditions: 300 nM ProTx-I; depolarisation to –15 mV from holding potential −80 mV; n = 8–9; Fig. 3f; P > 0.05
# Method: as §1, with “Recordings were performed as previously described for ASICs[30][31], GABAAR[32][33], GlyR[34], KV[6][8][35], and NaV[36] channels.” left out
# as §7
# [10] = tested on: NaV1.5; assay: Inhibition of NaV1.5 by ProTx-I, two-electrode voltage-clamp in Xenopus oocytes; format: cell-based; conditions: 300 nM ProTx-I; depolarisation to –15 mV from holding potential −80 mV; n = 8–9; Fig. 3f; P > 0.05
# Method: as §1, with “Recordings were performed as previously described for ASICs[30][31], GABAAR[32][33], GlyR[34], KV[6][8][35], and NaV[36] channels.” left out
# as §7
# [11] = X. laevis compared with X. borealis oocytes
# [12] = read-out: EC50, ΔF (glycine-induced fluorescence change), X. laevis oocytes
# [13] = read-out: EC50, ΔI (glycine-induced current), X. borealis oocytes
# [14] = read-out: EC50, ΔI (glycine-induced current), X. laevis oocytes
# Sequence of α1β2γ2L GABAAR (P14867 28-456): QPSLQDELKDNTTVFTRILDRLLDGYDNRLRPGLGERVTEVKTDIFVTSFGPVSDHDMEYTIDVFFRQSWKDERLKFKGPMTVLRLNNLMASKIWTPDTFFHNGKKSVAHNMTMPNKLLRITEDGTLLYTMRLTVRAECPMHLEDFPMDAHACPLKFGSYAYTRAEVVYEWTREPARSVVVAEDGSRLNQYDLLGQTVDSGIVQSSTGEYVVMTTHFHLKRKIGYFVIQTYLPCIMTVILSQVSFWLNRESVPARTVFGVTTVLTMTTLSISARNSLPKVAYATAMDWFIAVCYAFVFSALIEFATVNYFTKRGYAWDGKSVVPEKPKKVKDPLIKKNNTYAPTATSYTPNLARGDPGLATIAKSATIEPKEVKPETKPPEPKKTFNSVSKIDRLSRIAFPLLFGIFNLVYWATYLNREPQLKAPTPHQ
# Sequence of α1β2γ2L GABAAR (P47870 26-512): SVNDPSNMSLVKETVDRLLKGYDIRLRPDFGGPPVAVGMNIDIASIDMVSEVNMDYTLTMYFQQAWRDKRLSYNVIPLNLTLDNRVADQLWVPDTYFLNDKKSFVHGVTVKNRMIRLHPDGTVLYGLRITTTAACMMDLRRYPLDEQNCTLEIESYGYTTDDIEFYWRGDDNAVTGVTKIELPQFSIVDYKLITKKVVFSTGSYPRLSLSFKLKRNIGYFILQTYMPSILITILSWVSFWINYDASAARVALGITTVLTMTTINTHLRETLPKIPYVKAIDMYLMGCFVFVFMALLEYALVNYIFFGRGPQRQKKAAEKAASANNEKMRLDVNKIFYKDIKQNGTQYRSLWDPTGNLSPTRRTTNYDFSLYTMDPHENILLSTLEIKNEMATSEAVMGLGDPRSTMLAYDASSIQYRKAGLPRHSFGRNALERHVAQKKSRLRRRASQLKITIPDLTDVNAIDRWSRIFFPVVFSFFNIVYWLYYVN
# Sequence of α1β2γ2L GABAAR (P18507 40-475 partner): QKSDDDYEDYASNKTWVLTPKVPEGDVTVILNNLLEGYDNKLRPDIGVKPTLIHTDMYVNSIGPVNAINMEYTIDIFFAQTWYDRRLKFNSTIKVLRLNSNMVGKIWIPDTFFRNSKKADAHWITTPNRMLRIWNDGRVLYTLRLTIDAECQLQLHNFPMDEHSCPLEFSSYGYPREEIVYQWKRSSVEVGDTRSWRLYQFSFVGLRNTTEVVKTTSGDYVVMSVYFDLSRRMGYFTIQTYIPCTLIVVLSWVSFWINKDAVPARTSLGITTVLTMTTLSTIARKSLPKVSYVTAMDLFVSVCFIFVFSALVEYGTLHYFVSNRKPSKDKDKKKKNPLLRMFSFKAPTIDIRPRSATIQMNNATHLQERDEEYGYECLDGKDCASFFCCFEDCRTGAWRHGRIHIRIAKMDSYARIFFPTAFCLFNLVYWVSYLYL
# Sequence of α5β2γ2L GABAAR (P31644 32-462): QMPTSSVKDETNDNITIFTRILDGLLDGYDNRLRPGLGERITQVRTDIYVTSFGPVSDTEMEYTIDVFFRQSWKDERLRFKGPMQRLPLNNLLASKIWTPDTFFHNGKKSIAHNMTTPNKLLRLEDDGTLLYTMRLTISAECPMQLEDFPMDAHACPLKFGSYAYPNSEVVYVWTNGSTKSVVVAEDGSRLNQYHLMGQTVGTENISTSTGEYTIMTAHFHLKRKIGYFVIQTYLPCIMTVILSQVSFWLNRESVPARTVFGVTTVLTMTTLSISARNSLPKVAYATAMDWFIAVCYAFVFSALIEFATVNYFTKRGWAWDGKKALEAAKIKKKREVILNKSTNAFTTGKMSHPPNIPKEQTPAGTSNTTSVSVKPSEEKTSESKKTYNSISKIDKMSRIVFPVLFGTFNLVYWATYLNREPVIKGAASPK
# Sequence of α5β2γ2L GABAAR (P47870 26-512): as the sequence (P47870 26-512) above
# Sequence of α5β2γ2L GABAAR (P18507 40-475 partner): as the sequence (P18507 40-475 partner) above
# Sequence of α5β3γ2L GABAAR (P31644 32-462): as the sequence (P31644 32-462) above
# Sequence of α5β3γ2L GABAAR (P28472 26-473): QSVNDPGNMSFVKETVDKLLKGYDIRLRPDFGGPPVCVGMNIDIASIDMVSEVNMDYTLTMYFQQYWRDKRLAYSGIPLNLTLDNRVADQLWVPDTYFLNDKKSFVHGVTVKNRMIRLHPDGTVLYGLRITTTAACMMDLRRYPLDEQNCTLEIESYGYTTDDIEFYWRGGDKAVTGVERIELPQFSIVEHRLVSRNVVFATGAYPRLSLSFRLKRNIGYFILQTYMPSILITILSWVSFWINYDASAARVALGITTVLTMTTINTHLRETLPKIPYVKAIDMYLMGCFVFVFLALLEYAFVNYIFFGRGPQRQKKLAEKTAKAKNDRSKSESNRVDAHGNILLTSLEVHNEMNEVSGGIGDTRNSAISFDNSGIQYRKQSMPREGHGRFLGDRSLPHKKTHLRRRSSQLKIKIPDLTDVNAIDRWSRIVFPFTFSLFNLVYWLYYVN
# Sequence of α5β3γ2L GABAAR (P18507 40-475 partner): as the sequence (P18507 40-475 partner) above
compound,measurement,setting,value
"NCCCC(=O)O [GABA, γ-aminobutyric acid]",Slope (Hill coefficient),[1]; X. borealis oocytes,0.93
same,"Concentration-effect curves for GABA activation, X. laevis vs X. borealis",[1]; [11],no difference in the concentration-effect curves
same,Slope (Hill coefficient),[1]; X. laevis oocytes,0.75
same,Slope (Hill coefficient),[2]; X. borealis oocytes,0.60
same,"Concentration-effect curves for GABA activation, X. laevis vs X. borealis",[2]; [11],no difference in the concentration-effect curves
same,Slope (Hill coefficient),[2]; X. laevis oocytes,0.56
same,Slope (Hill coefficient),[3]; X. borealis oocytes,0.74
same,"Concentration-effect curves for GABA activation, X. laevis vs X. borealis",[3]; [11],no difference in the concentration-effect curves
same,Slope (Hill coefficient),[3]; X. laevis oocytes,0.49
NCC(=O)O [glycine],ΔFmax (maximal fluorescence change),[4]; X. borealis oocytes,9.0 ± 2.2%
same,ΔImax (maximal current change),[4]; X. borealis oocytes,2.7 ± 0.5 µA
same,"Slope, ΔF",[4]; X. borealis oocytes,1.0 ± 0.1
same,"Slope, ΔI",[4]; X. borealis oocytes,2.0 ± 0.2
same,ΔFmax (maximal fluorescence change),[4]; X. laevis oocytes,12.2 ± 2.2%
same,ΔImax (maximal current change),[4]; X. laevis oocytes,3.4 ± 1.7 µA
same,"Slope, ΔF",[4]; X. laevis oocytes,1.3 ± 0.2
same,"Slope, ΔI",[4]; X. laevis oocytes,1.4 ± 0.2
same,EC50,"[4]; read-out: EC50, ΔF (glycine-induced fluorescence change), X. borealis oocytes",1010 ± 98 µM
same,EC50,[4]; [12],872 ± 58 µM
same,EC50,[4]; [13],1700 ± 104 µM
same,EC50,[4]; [14],1930 ± 175 µM
same,ΔF after 1 min protease treatment vs untreated oocytes,"[5]; 10 μM glycine, protease (type VIII, 0.5 mg/ml) 1 min before labelling, n = 7, Fig. 5b","A significant increase in ΔF was obtained after 1 min treatment with protease for X. borealis, but not X. laevis, oocytes"
same,ΔFmax (maximal fluorescence change),[5]; X. borealis oocytes,27.8 ± 4.4%
same,ΔImax (maximal current change),[5]; X. borealis oocytes,8.0 ± 0.8 µA
same,"Slope, ΔF",[5]; X. borealis oocytes,1.8 ± 0.1
same,"Slope, ΔI",[5]; X. borealis oocytes,1.5 ± 0.1
same,ΔFmax (maximal fluorescence change),[5]; X. laevis oocytes,25.9 ± 4.2%
same,ΔImax (maximal current change),[5]; X. laevis oocytes,8.4 ± 0.2 µA
same,"Slope, ΔF",[5]; X. laevis oocytes,1.4 ± 0.2
same,"Slope, ΔI",[5]; X. laevis oocytes,1.9 ± 0.2
same,EC50,[5]; [12],548 ± 25 µM
same,EC50,[5]; [13],136 ± 8.7 µM
same,EC50,[5]; [14],145 ± 10 µM
"GTACSCGNSKGIYWFYRPSCPTDRGYTGSCRYFLGTCCTPAD (disulfide 4-37, 6-30, 20-38) [APETx2]",IC50,[6]; X. borealis oocytes,0.0511 µM
same,IC50,[6]; X. laevis oocytes,0.0647 µM
ProTx-I,"Inhibition by ProTx-I, X. laevis vs X. borealis",[7],Comparable levels of inhibition between species
same,NaV channel inhibition,[8],potent and non-selective NaV channel inhibitor
same,"Inhibition by ProTx-I, X. laevis vs X. borealis",[9],Comparable levels of inhibition between species
same,"Inhibition by ProTx-I, X. laevis vs X. borealis",[10],Comparable levels of inhibition between species
